# Legend:
# Rat [1] = assay: concentration in plasma after dosing; conditions: 1 h; dosed: perfluorohexane-1-sulphonic acid – potassium salt; 4 mg/kg; iv; Female; F344
# Rat [2] = assay: concentration in plasma after dosing; conditions: dosed: perfluorohexane-1-sulphonic acid – potassium salt, 4 mg/kg, iv, Female, F344
# Rat [3] = assay: concentration in plasma after dosing; conditions: dosed: perfluorohexane-1-sulphonic acid – potassium salt, 4 mg/kg, iv, Female, F344; remark: listed apart in the source
# Rat [4] = assay: concentration in plasma after dosing; conditions: dosed: perfluorohexane-1-sulphonic acid – potassium salt, 4 mg/kg, iv, Female, F344; remark: listed apart in the source
# Rat [5] = assay: concentration in plasma after dosing; conditions: dosed: perfluorohexane-1-sulphonic acid – potassium salt, 4 mg/kg, iv, Female, F344; remark: listed apart in the source
# Rat [6] = assay: concentration in plasma after dosing; conditions: dosed: perfluorohexane-1-sulphonic acid – potassium salt, 4 mg/kg, iv, Female, F344; remark: listed apart in the source
# Rat [7] = assay: concentration in plasma after dosing; conditions: Female, F344
# Rat [8] = assay: concentration in plasma after dosing; conditions: dosed: perfluorohexane-1-sulphonic acid – potassium salt, 4 mg/kg, iv, Female, F344; remark: listed apart in the source
# Rat [9] = assay: concentration in plasma after dosing; conditions: dosed: perfluorohexane-1-sulphonic acid – potassium salt, 4 mg/kg, iv, Female, F344; remark: listed apart in the source
# Rat [10] = assay: concentration in plasma after dosing; conditions: dosed: perfluorohexane-1-sulphonic acid – potassium salt, 4 mg/kg, iv, Female, F344; remark: listed apart in the source
# Rat [11] = assay: concentration in plasma after dosing; conditions: dosed: perfluorohexane-1-sulphonic acid – potassium salt, 4 mg/kg, iv, Female, F344; remark: listed apart in the source
# Rat [12] = assay: concentration in plasma after dosing; conditions: dosed: perfluorohexane-1-sulphonic acid – potassium salt, 4 mg/kg, iv, Female, F344; remark: listed apart in the source
# Rat [13] = assay: concentration in plasma after dosing; conditions: dosed: perfluorohexane-1-sulphonic acid – potassium salt, 4 mg/kg, iv, Female, F344; remark: listed apart in the source
# Rat [14] = assay: concentration in plasma after dosing; conditions: dosed: perfluorohexane-1-sulphonic acid – potassium salt, 4 mg/kg, iv, Female, F344; remark: listed apart in the source
# Rat [15] = assay: concentration in plasma after dosing; conditions: dosed: perfluorohexane-1-sulphonic acid – potassium salt, 4 mg/kg, iv, Female, F344; remark: listed apart in the source
# Rat [16] = assay: concentration in plasma after dosing; conditions: 192 h; dosed: perfluorohexane-1-sulphonic acid – potassium salt; 4 mg/kg; iv; Female; F344
# Rat [17] = assay: concentration in plasma after dosing; conditions: dosed: perfluorohexane-1-sulphonic acid – potassium salt, 4 mg/kg, iv, Female, F344; remark: listed apart in the source
# Rat [18] = assay: concentration in plasma after dosing; conditions: dosed: perfluorohexane-1-sulphonic acid – potassium salt, 4 mg/kg, iv, Female, F344; remark: listed apart in the source
# Rat [19] = assay: concentration in plasma after dosing; conditions: dosed: perfluorohexane-1-sulphonic acid – potassium salt, 4 mg/kg, iv, Female, F344; remark: listed apart in the source
# Rat [20] = assay: concentration in plasma after dosing; conditions: dosed: perfluorohexane-1-sulphonic acid – potassium salt, 4 mg/kg, iv, Female, F344; remark: listed apart in the source
# Rat [21] = assay: concentration in plasma after dosing; conditions: dosed: perfluorohexane-1-sulphonic acid – potassium salt, 4 mg/kg, iv, Female, F344; remark: listed apart in the source
# Rat [22] = assay: concentration in plasma after dosing; conditions: dosed: perfluorohexane-1-sulphonic acid – potassium salt, 4 mg/kg, iv, Female, F344; remark: listed apart in the source
# Rat [23] = assay: concentration in plasma after dosing; conditions: dosed: perfluorohexane-1-sulphonic acid – potassium salt, 4 mg/kg, iv, Female, F344; remark: listed apart in the source
# Rat [24] = assay: concentration in plasma after dosing; conditions: dosed: perfluorohexane-1-sulphonic acid – potassium salt, 4 mg/kg, iv, Female, F344; remark: listed apart in the source
# Rat [25] = assay: concentration in plasma after dosing; conditions: dosed: perfluorohexane-1-sulphonic acid – potassium salt, 4 mg/kg, iv, Female, F344; remark: listed apart in the source
# Rat [26] = assay: concentration in plasma after dosing; conditions: dosed: perfluorohexane-1-sulphonic acid – potassium salt, 4 mg/kg, iv, Female, F344; remark: listed apart in the source
# Rat [27] = assay: concentration in adipose after dosing; conditions: 144 h; dosed: Tamoxifen citrate; 300 ug/mL; oral; Female; F344
# Rat [28] = assay: concentration in adipose after dosing; conditions: 72 h; dosed: Tamoxifen citrate; 100 ug/mL; oral; Female; F344
# Rat [29] = assay: concentration in adipose after dosing; conditions: 144 h; dosed: Tamoxifen citrate; 300 ug/mL; oral; Female; F344; remark: listed apart in the source
# Rat [30] = assay: concentration in adipose after dosing; conditions: 144 h; dosed: Tamoxifen citrate; 100 ug/mL; oral; Female; F344
# Rat [31] = assay: concentration in adipose after dosing; conditions: 144 h; dosed: Tamoxifen; 300 ug/mL; oral; Female; F344
# Rat [32] = assay: concentration in adipose after dosing; conditions: 144 h; dosed: Tamoxifen citrate; 300 ug/mL; oral; Female; F344; remark: listed apart in the source
# Rat [33] = assay: concentration in adipose after dosing; conditions: 144 h; dosed: Tamoxifen citrate; 100 ug/mL; oral; Female; F344; remark: listed apart in the source
# Rat [34] = assay: concentration in adipose after dosing; conditions: 144 h; dosed: Tamoxifen; 300 ug/mL; oral; Female; F344; remark: listed apart in the source
# Rat [35] = assay: concentration in adipose after dosing; conditions: oral, Female, F344
# Rat [36] = assay: concentration in adipose after dosing; conditions: 144 h; dosed: Tamoxifen; 300 ug/mL; oral; Female; F344; remark: listed apart in the source
smiles,measurement,setting,value
O=S(=O)([O-])C(F)(F)C(F)(F)C(F)(F)C(F)(F)C(F)(F)C(F)(F)F.[K+] [perfluorohexane-1-sulphonic acid – potassium salt],concentration in plasma,Rat [1],170 ng/mL
same,concentration in plasma,Rat [2]; 1 h,3840 ng/mL
same,concentration in plasma,Rat [2]; 48 h,1000 ng/mL
same,concentration in plasma,Rat [3]; 5 min,5590 ng/mL
same,concentration in plasma,Rat [3]; 6 h,2440 ng/mL
same,concentration in plasma,Rat [3]; 192 h,126 ng/mL
same,concentration in plasma,Rat [4]; 5 min,6770 ng/mL
same,concentration in plasma,Rat [4]; 3 h,2910 ng/mL
same,concentration in plasma,Rat [4]; 528 h,879 ng/mL
same,concentration in plasma,Rat [5]; 5 min,6140 ng/mL
same,concentration in plasma,Rat [5]; 6 h,2330 ng/mL
same,concentration in plasma,Rat [5]; 192 h,118 ng/mL
same,concentration in plasma,Rat [6]; 3 h,2550 ng/mL
same,concentration in plasma,Rat [6]; 96 h,387 ng/mL
same,concentration in plasma,"Rat [7]; 5 min, dosed: perfluorohexane-1-sulphonic acid – potassium salt, 4 mg/kg, iv",5260 ng/mL
same,concentration in plasma,"Rat [7]; 0.25 h, dosed: perfluorohexane-1-sulphonic acid – potassium salt, 4 mg/kg, iv",3900 ng/mL
same,concentration in plasma,"Rat [7]; 1 h, dosed: perfluorohexane-1-sulphonic acid – potassium salt, 4 mg/kg, iv",3190 ng/mL
same,concentration in plasma,"Rat [7]; 3 h, dosed: perfluorohexane-1-sulphonic acid – potassium salt, 4 mg/kg, iv",1890 ng/mL
same,concentration in plasma,"Rat [7]; 6 h, dosed: perfluorohexane-1-sulphonic acid – potassium salt, 4 mg/kg, iv",2390 ng/mL
same,concentration in plasma,"Rat [7]; 12 h, dosed: perfluorohexane-1-sulphonic acid – potassium salt, 4 mg/kg, iv",2230 ng/mL
same,concentration in plasma,"Rat [7]; 24 h, dosed: perfluorohexane-1-sulphonic acid – potassium salt, 4 mg/kg, iv",2030 ng/mL
same,concentration in plasma,"Rat [7]; 192 h, dosed: perfluorohexane-1-sulphonic acid – potassium salt, 4 mg/kg, iv",1200 ng/mL
same,concentration in plasma,"Rat [7]; 528 h, dosed: perfluorohexane-1-sulphonic acid – potassium salt, 4 mg/kg, iv",519 ng/mL
same,concentration in plasma,"Rat [7]; 864 h, dosed: perfluorohexane-1-sulphonic acid – potassium salt, 4 mg/kg, iv",551 ng/mL
same,concentration in plasma,Rat [8]; 0.5 h,3970 ng/mL
same,concentration in plasma,Rat [8]; 24 h,2200 ng/mL
same,concentration in plasma,Rat [8]; 1200 h,494 ng/mL
same,concentration in plasma,Rat [9]; 3 h,3290 ng/mL
same,concentration in plasma,Rat [9]; 96 h,566 ng/mL
same,concentration in plasma,Rat [10]; 0.25 h,5150 ng/mL
same,concentration in plasma,Rat [10]; 12 h,2040 ng/mL
same,concentration in plasma,Rat [11]; 5 min,842 ng/mL
same,concentration in plasma,Rat [11]; 6 h,298 ng/mL
same,concentration in plasma,Rat [12]; 0.25 h,4180 ng/mL
same,concentration in plasma,Rat [12]; 12 h,1750 ng/mL
same,concentration in plasma,Rat [13]; 1 h,3140 ng/mL
same,concentration in plasma,Rat [13]; 24 h,2330 ng/mL
same,concentration in plasma,Rat [13]; 1200 h,393 ng/mL
same,concentration in plasma,Rat [14]; 1 h,3150 ng/mL
same,concentration in plasma,Rat [14]; 48 h,1130 ng/mL
same,concentration in plasma,Rat [15]; 0.5 h,2900 ng/mL
same,concentration in plasma,Rat [15]; 12 h,2090 ng/mL
same,concentration in plasma,Rat [15]; 1200 h,288 ng/mL
same,concentration in plasma,Rat [16],1390 ng/mL
same,concentration in plasma,Rat [17]; 0.5 h,4200 ng/mL
same,concentration in plasma,Rat [17]; 24 h,1370 ng/mL
same,concentration in plasma,Rat [18]; 0.5 h,4010 ng/mL
same,concentration in plasma,Rat [18]; 24 h,1450 ng/mL
same,concentration in plasma,Rat [19]; 0.5 h,3610 ng/mL
same,concentration in plasma,Rat [19]; 12 h,2480 ng/mL
same,concentration in plasma,Rat [19]; 864 h,496 ng/mL
same,concentration in plasma,Rat [20]; 5 min,4710 ng/mL
same,concentration in plasma,Rat [20]; 3 h,2380 ng/mL
same,concentration in plasma,Rat [20]; 192 h,1450 ng/mL
same,concentration in plasma,Rat [21]; 0.25 h,4180 ng/mL
same,concentration in plasma,Rat [21]; 6 h,2530 ng/mL
same,concentration in plasma,Rat [21]; 864 h,818 ng/mL
same,concentration in plasma,Rat [22]; 0.25 h,2050 ng/mL
same,concentration in plasma,Rat [22]; 6 h,1440 ng/mL
same,concentration in plasma,Rat [22]; 528 h,491 ng/mL
same,concentration in plasma,Rat [23]; 0.25 h,4330 ng/mL
same,concentration in plasma,Rat [23]; 12 h,1840 ng/mL
same,concentration in plasma,Rat [24]; 0.5 h,4140 ng/mL
same,concentration in plasma,Rat [24]; 24 h,1650 ng/mL
same,concentration in plasma,Rat [25]; 3 h,3150 ng/mL
same,concentration in plasma,Rat [25]; 96 h,484 ng/mL
same,concentration in plasma,Rat [26]; 1 h,3180 ng/mL
same,concentration in plasma,Rat [26]; 48 h,842 ng/mL
CC/C(=C(/c1ccc(O)cc1)c1ccc(OCCN(C)C)cc1)c1ccccc1 [trans-4-Hydroxytamoxifen],concentration in adipose,Rat [27],9.08 ng/g
same,concentration in adipose,Rat [28],5.3 ng/g
same,concentration in adipose,Rat [29],5.1 ng/g
same,concentration in plasma,"Rat [7]; 72 h, dosed: Tamoxifen citrate, 300 ug/mL, oral",1.87 ng/mL
same,concentration in plasma,"Rat [7]; 72 h, dosed: Tamoxifen, 300 ug/mL, oral",1.87 ng/mL
same,concentration in adipose,Rat [30],5.04 ng/g
same,concentration in adipose,Rat [31],9.08 ng/g
same,concentration in adipose,Rat [32],10.3 ng/g
same,concentration in adipose,Rat [33],6.12 ng/g
same,concentration in adipose,Rat [34],10.3 ng/g
same,concentration in adipose,"Rat [35]; 72 h, dosed: Tamoxifen citrate, 100 ug/mL",8.8 ng/g
same,concentration in adipose,"Rat [35]; 144 h, dosed: Tamoxifen citrate, 100 ug/mL",4.35 ng/g
same,concentration in adipose,"Rat [35]; 144 h, dosed: Tamoxifen citrate, 300 ug/mL",2.96 ng/g
same,concentration in adipose,"Rat [35]; 144 h, dosed: Tamoxifen, 300 ug/mL",2.96 ng/g
same,concentration in adipose,Rat [36],5.1 ng/g

# — EPA's CvTdb concentration-time database
